Our source for the IC50 values is article PMC2858983 (Clinical cancer research : an official journal of the …, 2010).

Where a name gives a salt, the structure may show the parent alone.

This experiment deals with inducible nitric oxide synthase (iNOS) (Homo sapiens, UniProt P35228). Nature of the experiment: NO release. It is filed as cell-based.
inducible nitric oxide synthase (iNOS), sequence (P35228 whole entry): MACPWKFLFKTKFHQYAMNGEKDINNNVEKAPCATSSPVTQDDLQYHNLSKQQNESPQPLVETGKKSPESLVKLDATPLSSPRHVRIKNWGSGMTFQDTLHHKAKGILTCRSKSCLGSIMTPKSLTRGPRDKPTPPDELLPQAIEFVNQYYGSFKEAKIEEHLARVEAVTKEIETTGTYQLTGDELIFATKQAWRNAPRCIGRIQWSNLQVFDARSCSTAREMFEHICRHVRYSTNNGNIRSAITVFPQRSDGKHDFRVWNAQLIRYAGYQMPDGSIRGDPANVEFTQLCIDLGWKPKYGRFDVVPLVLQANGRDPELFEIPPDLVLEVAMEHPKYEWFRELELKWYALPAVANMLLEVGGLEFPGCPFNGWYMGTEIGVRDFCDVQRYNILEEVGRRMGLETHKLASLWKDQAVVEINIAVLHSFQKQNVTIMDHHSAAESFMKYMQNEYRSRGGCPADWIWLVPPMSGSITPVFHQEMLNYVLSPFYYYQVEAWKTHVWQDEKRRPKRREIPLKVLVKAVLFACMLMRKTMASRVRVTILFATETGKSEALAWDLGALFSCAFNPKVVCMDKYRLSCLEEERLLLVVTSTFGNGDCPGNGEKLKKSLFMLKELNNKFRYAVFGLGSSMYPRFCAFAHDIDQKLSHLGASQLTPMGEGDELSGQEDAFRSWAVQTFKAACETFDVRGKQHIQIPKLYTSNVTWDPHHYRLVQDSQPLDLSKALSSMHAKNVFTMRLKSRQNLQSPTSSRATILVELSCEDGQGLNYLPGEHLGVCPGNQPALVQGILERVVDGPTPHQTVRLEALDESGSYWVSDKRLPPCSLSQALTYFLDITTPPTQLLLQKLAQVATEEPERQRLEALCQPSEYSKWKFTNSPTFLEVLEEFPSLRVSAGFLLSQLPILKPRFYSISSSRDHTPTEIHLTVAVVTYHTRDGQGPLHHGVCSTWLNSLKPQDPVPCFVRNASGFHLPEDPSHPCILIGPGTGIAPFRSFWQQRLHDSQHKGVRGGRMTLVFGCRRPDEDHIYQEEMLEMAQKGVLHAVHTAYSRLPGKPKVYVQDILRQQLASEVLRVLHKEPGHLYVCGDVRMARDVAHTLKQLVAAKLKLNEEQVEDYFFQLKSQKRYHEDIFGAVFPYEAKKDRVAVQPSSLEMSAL

The term IC50 denotes the concentration at which inhibition is half-maximal. Read a low IC50 as greater potency. In the case of `CC(=N)NCCCC[C@H](N)C(=O)O` [L-nil, N6-(1-Iminoethyl)-L-lysine-dihydrochloride], half-maximal inhibition (IC50) was put at 595 µM.
